The source of these data is PubChem BioAssay AID977614 (Broad Institute, 2014).

For this test, the system named is L. donovani amastigotes in THP-1 macrophages, DAPI imaging, 72 h. Description: antileishmanial activity in infected macrophages – imaging, THP-1 host macrophages, single concentration (AID 977614).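 Also: signal is the parasite per host cell ratio from DAPI stained kinetoplasts and nuclei.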

Broadly, the AC50 is the concentration at which the activity in the assay is half-maximal.

Calls of active or inactive are those of the source.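 The calls were made as follows: active = parasite count per well reduced by over 3 SD from the mean, with host cell number above 80% of untreated; inactive = the rest.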

In the case of `O=C(Nc1ccc(Cl)cc1)N1C[C@@H]2[C@H](c3ccccc31)[C@H](CO)N2CC1CCCCC1`, the AC50 was > 10 µM (inactive).

On to `C[C@@H]1CN([C@H](C)CO)C(=O)CCCn2cc(nn2)CO[C@@H]1CN(C)C(=O)Nc1cccc2ccccc12`, for which the AC50 is > 10 µM (inactive).

For `C[C@H](CO)N1C[C@H](C)[C@H](CN(C)S(=O)(=O)c2ccc(Oc3ccccc3)nc2)OCc2cnnn2CCCC1=O`, the AC50 is > 10 µM (inactive). For `CC(=O)N1[C@@H](CO)[C@H](c2ccccc2)[C@@H]1CNC(=O)CN1CCOCC1`, the AC50 was > 10 µM (inactive). Take `CCN(C[C@@H]1[C@@H](c2ccccc2)[C@@H](CO)N1C(=O)COC)S(C)(=O)=O`: the AC50 was > 10 µM (inactive). `C[C@@H]1CN([C@@H](C)CO)C(=O)CCCn2nncc2CO[C@@H]1CN(C)Cc1ccc2c(c1)OCCN2C`: the AC50 is > 10 µM (inactive). Regarding `CCC(=O)N1[C@H](CO)[C@H]2c3ccccc3N(S(=O)(=O)c3ccc(F)cc3)C[C@H]21`, the AC50 was > 10 µM (inactive). The figure for `CN(C[C@@H]1[C@H](c2ccccc2)[C@H](CO)N1Cc1ccccn1)S(C)(=O)=O` is > 10 µM (inactive).

`O=S(=O)(c1ccc(F)cc1)N1C[C@@H]2[C@H](c3ccccc31)[C@H](CO)N2Cc1ccccc1Cl`: the AC50 is > 10 µM (inactive). As to `COc1ccccc1-c1ccc([C@H]2[C@@H](CO)N(C(C)=O)[C@H]2CN(C)C(C)=O)cc1`, the AC50 was > 10 µM (inactive).

Take `Cc1noc(C)c1NC(=O)N(C)C[C@H]1OCc2cnnn2CCCC(=O)N([C@@H](C)CO)C[C@@H]1C`: the AC50 was > 10 µM (inactive). Take `CC(=O)N1C[C@@H]2[C@H](c3ccccc31)[C@H](CO)N2Cc1ccc(Cl)cc1`: the AC50 is > 10 µM (inactive). The figure for `COc1ccc(CN2[C@@H]3CNc4ccccc4[C@@H]3[C@@H]2CO)cc1` is > 10 µM (inactive); for `Cc1cccc(S(=O)(=O)N2C[C@H]3[C@@H](c4ccccc42)[C@H](CO)N3C(=O)c2ccccc2)c1` it is > 10 µM (inactive). The figure for `O=C(CC(F)(F)F)N1C[C@H]2[C@@H](c3ccccc31)[C@@H](CO)N2CC1CCOCC1` is > 10 µM (inactive); for `CC(=O)NC[C@@H]1[C@@H](c2ccc(-c3cccnc3)cc2)[C@@H](CO)N1C(=O)CC1CC1` it is > 10 µM (inactive). `O=C(Nc1ccc(F)cc1)N1[C@H](CO)[C@@H]2c3ccccc3NC[C@@H]21`: the AC50 is > 10 µM (inactive). Regarding `C/C=C/c1ccc([C@H]2[C@@H](CO)N[C@@H]2CNC(=O)C2CC2)cc1`, the AC50 was > 10 µM (inactive). For `CC(=O)N1C[C@H]2[C@@H](c3ccccc31)[C@@H](CO)N2Cc1ccc(Cl)cc1`, the AC50 was > 10 µM (inactive).

As for `CC(=O)N1[C@@H](CO)[C@H](c2ccccc2)[C@@H]1CN(CC(C)C)C(=O)c1ccccn1`, the AC50 was > 10 µM (inactive). On to `Cc1cccc(S(=O)(=O)N2C[C@H]3[C@@H](c4ccccc42)[C@@H](CO)N3CC2CCCC2)c1`, for which the AC50 is > 10 µM (inactive). Consider `O=C(CC1CC1)N1[C@H](CO)[C@H]2c3ccccc3N(S(=O)(=O)c3ccccc3F)C[C@H]21`, for which the AC50 is > 10 µM (inactive).

As for `CC(C)N(C[C@@H]1[C@@H](c2ccccc2)[C@H](CO)N1S(C)(=O)=O)C(=O)CN(C)C`, the AC50 was > 10 µM (inactive). Consider `O=C(Nc1cccc(F)c1)N1C[C@@H]2[C@H](c3ccccc31)[C@@H](CO)N2C(=O)Cc1ccccn1`, for which the AC50 is > 10 µM (inactive). The figure for `COCCN(C[C@H]1[C@H](c2ccccc2)[C@H](CO)N1C(C)=O)C(=O)c1cccnc1` is > 10 µM (inactive). As to `CCC(=O)NC[C@H]1[C@@H](c2ccc(-c3ccc(C#N)cc3)cc2)[C@@H](CO)N1CCC(F)(F)F`, the AC50 was > 10 µM (inactive).

As to `O=C(C1CCCCC1)N1[C@@H]2CN(S(=O)(=O)c3ccccc3)c3ccccc3[C@@H]2[C@@H]1CO`, the AC50 is > 10 µM (inactive). For the compound `C[C@@H]1CN([C@H](C)CO)C(=O)CCCn2nncc2CO[C@H]1CN(C)C(=O)Nc1ccccc1C(F)(F)F`, the AC50 is > 10 µM (inactive). As to `O=C(NC[C@@H]1[C@@H](c2ccccc2)[C@@H](CO)N1Cc1cccnc1)c1ccccn1`, the AC50 was > 10 µM (inactive). With `O=C(C1CCCCC1)N1[C@@H](CO)[C@@H]2c3ccccc3N(S(=O)(=O)c3ccccc3)C[C@@H]21`, the AC50 was > 10 µM (inactive). The figure for `C[C@H]1CN([C@@H](C)CO)C(=O)CCCn2cc(nn2)CO[C@@H]1CN(C)C(=O)CCC(F)(F)F` is > 10 µM (inactive). As to `COc1ccccc1CN1[C@@H](CO)[C@@H]2c3ccccc3N(C(=O)c3cccnc3)C[C@@H]21`, the AC50 is > 10 µM (inactive). Turning to `O=C(CC(F)(F)F)N1C[C@@H]2[C@H](c3ccccc31)[C@@H](CO)N2CC1CCOCC1`, the AC50 was > 10 µM (inactive).

Regarding `C[C@@H]1CN([C@@H](C)CO)C(=O)CCCn2cc(nn2)CO[C@@H]1CN(C)Cc1ccccc1`, the AC50 is > 10 µM (inactive). Turning to `C[C@@H]1CN([C@@H](C)CO)C(=O)CCCn2nncc2CO[C@H]1CN(C)C(=O)Nc1ccc2c(c1)OCCO2`, the AC50 is > 10 µM (inactive).

Consider `CCCNC[C@H]1[C@@H](c2ccc(C3=CCCCC3)cc2)[C@@H](CO)N1C(=O)C1CCC1`, for which the AC50 was > 10 µM (inactive). As to `O=C(c1ccc2c(c1)OCO2)N1C[C@H]2[C@@H](c3ccccc31)[C@@H](CO)N2Cc1cccnc1`, the AC50 was > 10 µM (inactive).

Consider `O=C(NC[C@H]1[C@H](c2ccccc2)[C@@H](CO)N1Cc1ccccn1)C1CCCC1`, for which the AC50 was > 10 µM (inactive). As for `OC[C@@H]1[C@@H]2c3ccccc3NC[C@@H]2N1Cc1cccnc1`, the AC50 is > 10 µM (inactive). `O=C(c1ccc2c(c1)OCO2)N1C[C@H]2[C@@H](c3ccccc31)[C@H](CO)N2Cc1cccnc1`: the AC50 is > 10 µM (inactive). Regarding `O=C(Nc1ccccc1F)N1C[C@@H]2[C@H](c3ccccc31)[C@H](CO)N2C(=O)Cc1cccnc1`, the AC50 was > 10 µM (inactive). Next, `C[C@H]1CN([C@@H](C)CO)C(=O)CCCn2nncc2CO[C@@H]1CN(C)C(=O)CCC(F)(F)F`: > 10 µM (inactive); `C[C@@H]1CN([C@H](C)CO)C(=O)CCCn2nncc2CO[C@H]1CN(C)S(=O)(=O)c1ccc(Oc2ccccc2)nc1`: > 10 µM (inactive). Turning to `C[C@@H]1CN([C@H](C)CO)C(=O)CCCn2nncc2CO[C@@H]1CN(C)S(=O)(=O)c1cn(C)cn1`, the AC50 was > 10 µM (inactive).

For `C[C@@H]1CN([C@@H](C)CO)C(=O)CCCn2cc(nn2)CO[C@H]1CN(C)C(=O)Oc1ccc2ccccc2c1`, the AC50 is > 10 µM (inactive).

Take `O=C(C1CCCCC1)N1[C@H](CO)[C@@H]2c3ccccc3N(S(=O)(=O)c3ccccc3)C[C@@H]21`: the AC50 is > 10 µM (inactive).

For the compound `C/C=C/c1ccc([C@H]2[C@@H](CO)N(C(=O)C3CC3)[C@@H]2CNC(=O)NC(C)C)cc1`, the AC50 is > 10 µM (inactive).

`COCCN(C[C@H]1[C@H](c2ccccc2)[C@@H](CO)N1C(=O)C1CC1)C(C)=O`: the AC50 is > 10 µM (inactive).

On to `C[C@H]1CN([C@@H](C)CO)C(=O)CCCn2nncc2CO[C@H]1CN(C)Cc1ccc2c(c1)OCCN2C`, for which the AC50 is > 10 µM (inactive).

In the case of `CC(C)NC(=O)N1[C@H](CO)[C@@H]2c3ccccc3N(C)C[C@@H]21`, the AC50 was > 10 µM (inactive). The figure for `C[C@@H]1CN([C@H](C)CO)C(=O)CCCn2cc(nn2)CO[C@H]1CN(C)C(=O)Nc1cccc2ccccc12` is > 10 µM (inactive); for `CC(C)NC(=O)N1[C@@H](CO)[C@@H]2c3ccccc3N(C)C[C@@H]21` it is > 10 µM (inactive); for `O=C(Nc1ccc(F)cc1)N1[C@H](CO)[C@H]2c3ccccc3NC[C@H]21` it is > 10 µM (inactive). As for `C[C@@H]1CN([C@@H](C)CO)C(=O)CCCn2nncc2CO[C@H]1CN(C)Cc1cccc2c1OCCCO2`, the AC50 was > 10 µM (inactive). On to `COc1ccc(C(=O)N2C[C@@H]3[C@H](c4ccccc42)[C@H](CO)N3C(=O)Cc2ccccn2)cc1`, for which the AC50 was > 10 µM (inactive).

For the compound `C[C@H]1CN([C@@H](C)CO)C(=O)CCCn2nncc2CO[C@H]1CN(C)C(=O)Nc1ccnc(N2CCOCC2)c1`, the AC50 is > 10 µM (inactive).

In the case of `O=C(Nc1cccc(F)c1)N1C[C@H]2[C@@H](c3ccccc31)[C@@H](CO)N2C(=O)Cc1ccccn1`, the AC50 was > 10 µM (inactive).

On to `C[C@@H]1CN([C@@H](C)CO)C(=O)CCCn2cc(nn2)CO[C@H]1CN(C)C(=O)NC1CCCCC1`, for which the AC50 is > 10 µM (inactive).

As to `O=C(Nc1ccccc1Cl)N1C[C@H]2[C@@H](c3ccccc31)[C@H](CO)N2C(=O)c1cccnc1`, the AC50 was > 10 µM (inactive). The figure for `C[C@@H]1CN([C@@H](C)CO)C(=O)CCCn2nncc2CO[C@H]1CN(C)Cc1ccc2cccnc2c1` is > 10 µM (inactive); for `COc1ccccc1S(=O)(=O)N(C)C[C@@H]1OCc2cn(nn2)CCCC(=O)N([C@@H](C)CO)C[C@@H]1C` it is > 10 µM (inactive); for `CC(=O)N1[C@@H](CO)[C@@H]2c3ccccc3N(C(=O)c3ccc(F)cc3)C[C@@H]21` it is > 10 µM (inactive). For the compound `CCN(C[C@@H]1N[C@H](CO)[C@H]1c1ccccc1)C(=O)c1ccncc1`, the AC50 is > 10 µM (inactive). With `CN1[C@@H](CO)[C@@H]2c3ccccc3N(C(=O)Nc3cc(F)ccc3F)C[C@@H]21`, the AC50 was > 10 µM (inactive). Take `O=C(C1CCC1)N1C[C@@H]2[C@H](c3ccccc31)[C@H](CO)N2Cc1ccccc1`: the AC50 was > 10 µM (inactive).

For `CC(=O)N1[C@H](CO)[C@@H](c2ccccc2)[C@H]1CN(CC1CCC1)C(=O)CN(C)C`, the AC50 was > 10 µM (inactive).

Regarding `CCN(C[C@H]1N[C@H](CO)[C@@H]1c1ccccc1)C(=O)c1ccncc1`, the AC50 is > 10 µM (inactive). On to `O=C(C1CCOCC1)N1C[C@H]2[C@@H](c3ccccc31)[C@@H](CO)N2C(=O)Nc1ccccc1F`, for which the AC50 was > 10 µM (inactive).

With `COc1ccccc1NC(=O)N1C[C@@H]2[C@H](c3ccccc31)[C@@H](CO)N2CC1CCOCC1`, the AC50 is > 10 µM (inactive).
